Patent US11840527B2, “Non-fused thiophene derivatives and their uses” (ENYO PHARMA, priority 2018, dated 2023)

Tests used:
[1] = system: H1N1 (influenza A/New Caledonia/20/99); assay: Antiviral effect on A549 cells infected with H1N1; format: cell-based, H1N1 A/New Caledonia/20/99 virus; conditions: Influenza A virus, MOI 0.1, 48 h post-infection, MUNANA neuraminidase readout
Method: The antiviral effect of the compounds of the invention have been tested on A549 cell lines infected with H1N1 (influenza A/New Caledonia/20/99).
Human A549 cells (80,000 cells/well in a 96 well plate) were treated with a range of concentration of test compounds and immediately infected by H1N1 A/New Caledonia/20/99 virus (clinical isolate) at MOI of 0.1 in DMEM/1% Penicillin/streptomycin supplemented with […] TPCK trypsin (Sigma) and incubated at 37° C. in 5% CO2. 48 h post-infection, supernatants (25 μl) were collected and transferred into a 96-well black flat-bottom plate, mixed with 25 μl PBS with Ca++/Mg++ (Thermo Fisher) and 50 μl of 2′-(4-Methylumbelliferyl)-ax-D-N-acetylneuraminic acid sodium salt hydrate stock-solution (20 μM, MUNANA, Sigma). Plates were incubated 1h at 37° C. and reaction is stopped by adding 100 μl of Stop Solution (glycine 0.1 M pH10.7/25% ethanol). The amount of fluorescent product released by MUNANA hydrolysis (4-MU) was measured in a Tecan spectrophotometer with excitation and emission wavelengths of 365 and 450 nm respectively.

[2] = molecular target: T1, CISD3 Gene Product (Miner2) (Homo sapiens, UniProt P0C7P0); assay: Stability of Fe-S cluster binding of purified NEET protein (absorbance 458 nm); format: biochemical; conditions: for Residual cluster bound at end of experiment (Percentage Absorbance 458 nm at time zero): CISD3 gene product, at 180 minutes, vehicle control (DMSO) 11%; for Residual cluster bound at end of experiment (Percentage Absorbance 458 nm at time zero) / Time (in minutes) to achieve 50% loss of bound cluster (Absorbance 458 nm): 60 μM compound; for Stabiliser of Fe—S cluster binding (time to 50% loss increased by more than 25% vs control) / Time (in minutes) to achieve 50% loss of bound cluster (Absorbance 458 nm): Miner2; for Stabiliser of Fe—S cluster binding (time to 50% loss increased by more than 25% vs control): at the concentrations tested; for Time (in minutes) to achieve 50% loss of bound cluster (Absorbance 458 nm): pH 6, 37° C., 20 μM protein, run time 180 minutes, vehicle control 60
T1 sequence (P0C7P0 15-127): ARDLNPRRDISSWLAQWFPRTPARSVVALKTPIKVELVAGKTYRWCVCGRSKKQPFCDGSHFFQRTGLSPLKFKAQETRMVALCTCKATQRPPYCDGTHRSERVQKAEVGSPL
Method: (§1) The modulator effect on the NEET proteins encoded by human CISD1, CISD2, and CISD3 genes by the compounds of the invention has been tested and is reported below. Particularly, the biochemical function of the NEET proteins is measured by the stability of Fe—S cluster binding of the purified NEET proteins.
(§2) The Fe—S cluster binding capacity of NEET proteins is known to be coordinated by four amino-acids in a stretch of 16 (three Cysteine and one Histidine). As the lability of the Fe—S cluster of NEET proteins is sensitive to the environment, cluster stability measurements are one of the measures of interactions of NEET proteins with small molecules and compounds. NEET protein/2Fe-2S cluster stability can be assessed by monitoring the decay in absorbance of its characteristic 458-nm peak (characteristic of the oxidized 2Fe-2S cluster) over time. Each NEET protein (mitoNEET, NAF-1 and Miner 2) was tested for its Fe—S binding in the absence or presence of a compound according to the invention (see table 3 below). The rate of cluster release (time in minutes to achieve 50% loss of bound Fe—S cluster) was compared for each NEET protein in the presence of one of the compounds of the invention (in a 1:3 protein:compound molar ratio) relative to each protein alone.
(§3) At pH 6, all the three NEET proteins (mitoNEET, NAF-1 and Miner 2) have a characteristic rate of loss of the bound Fe—S cluster that can be measured by the decrease of absorbance at wavelength 458 nm over time, using a spectrophotometer. Thus, Bis-Tris buffer (100 mM Bis-Tris pH6, 100 mM Nacl) was used at pH 6 to dilute either DMSO (Blank sample: Bis-Tris Buffer pH 6, 66 μM DMSO), DMSO and one of the three NEET proteins (Control sample: Bis-Tris Buffer pH 6, 66 μM DMSO, 20 μM purified NEET protein) or DMSO, one of the three NEET proteins and a compound of the invention (Test sample: Bis-Tris Buffer pH 6, 66 μM DMSO, 20 μM purified NEET protein, 60 μM compound of the invention).
(§4) A reaction mix containing DMSO diluted in the Bis-Tris Buffer with or without a compound of the invention was prepared. The purified NEET protein was the last component added to the reaction mix which was then aliquoted into 4 replicates in 96 wells plates. The absorbance at wavelength 458 nm was taken at 5 minutes intervals at 37° C. with a spectrofluorimeter. The assay run time for CISD2 gene product (NAF-1) was 500 minutes and 180 minutes for both the CISD 1 gene product (mitoNEET) and the CISD3 gene product (Miner 2).
(§5) In addition to time monitoring, residual bound Fe—S cluster to NEET protein was measured at the final point of the spectrometry assay for each Test sample and compared to the Control sample data (in parenthesis table 3). This residual binding is measured by the differential percentage between the absorbance 458 nm at time zero and the absorbance 458 nm at the end of the experiment (i.e. respectively 500 or 180 minutes as described hereabove), showing the percentage of NEET protein still able to bind Fe—S cluster.
(§6) Analysis of the absorbance enables the time for which 50% loss of bound Fe—S cluster is reached (i.e. a 50% absorbance decrease at 458 nm) for each Test sample and each Control sample (in parenthesis table 3) to be determined. The data are then compared to determine whether the compound of the invention stabilizes or destabilizes the NEET protein/Fe—S cluster binding.
(§7) Stabilisers of Fe—S cluster binding by the NEET proteins slow the release of bound Fe—S (i.e. increase the time needed to reach 50% Fe—S cluster bound loss by more than 25% for the Test sample compared to the Control sample). As illustrated by table 3, at the concentrations tested, stabilisers of CISD1 Gene Product (mitoNEET) are the compounds #9, #18, #26, #2, #1, and #42. Stabilisers of CISD2 Gene Product (NAF-1) are the compounds #2, #1, and #40. Stabilisers of CISD3 Gene Product (Miner2) are the compounds #9, #18, #26, #2, #1, and #42.

[3] = molecular target: T2, CISD1 Gene Product (mitoNEET) (Homo sapiens, UniProt Q9NZ45); assay: as above; format: biochemical; conditions: for Residual cluster bound at end of experiment (Percentage Absorbance 458 nm at time zero): at 180 minutes, vehicle control 16%; for Residual cluster bound at end of experiment (Percentage Absorbance 458 nm at time zero) / Time (in minutes) to achieve 50% loss of bound cluster (Absorbance 458 nm): 60 μM compound; for Stabiliser of Fe—S cluster binding (time to 50% loss increased by more than 25% vs control): at the concentrations tested; for Time (in minutes) to achieve 50% loss of bound cluster (Absorbance 458 nm): pH 6, 37° C., 20 μM protein, run time 180 minutes, vehicle control 80
T2 sequence (Q9NZ45 33-108 limits assumed): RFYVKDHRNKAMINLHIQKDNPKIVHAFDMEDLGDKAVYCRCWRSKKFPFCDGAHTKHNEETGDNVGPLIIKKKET
Method: as §1, §2, §3, §4, §5, §6, §7

[4] = molecular target: T3, CISD2 Gene Product (NAF-1) (Homo sapiens, UniProt Q8N5K1); assay: as above; format: biochemical; conditions: for Residual cluster bound at end of experiment (Percentage Absorbance 458 nm at time zero): at 500 minutes, vehicle control 3%; for Residual cluster bound at end of experiment (Percentage Absorbance 458 nm at time zero) / Time (in minutes) to achieve 50% loss of bound cluster (Absorbance 458 nm): 60 μM compound; for Stabiliser of Fe—S cluster binding (time to 50% loss increased by more than 25% vs control): at the concentrations tested; for Time (in minutes) to achieve 50% loss of bound cluster (Absorbance 458 nm): pH 6, 37° C., 20 μM protein, run time 500 minutes, vehicle control 310
T3 sequence (Q8N5K1 57-135 limits assumed): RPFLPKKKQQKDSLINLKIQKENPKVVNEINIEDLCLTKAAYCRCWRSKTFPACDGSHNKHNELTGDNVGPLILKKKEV
Method: as §1, §2, §3, §4, §5, §6, §7

NFκB = NFκB reporter assay, TNFα stimulation of A549 reporter cells; format: cell-based; conditions: Homo sapiens; A549 NFκB-NanoLuciferase reporter cells, 4 ng/ml TNFα, 6 hours
Text: Compounds of the present invention have been tested for their capacity to inhibit NFκB.
The NFκB reporter construct was made by cloning 5 NFκB responsive elements upstream of a NanoLuciferase reporter gene flanked by AAVS1 genomic sequences.
NFκB Responsive element fused with NanoLuciferase and SV40 late Poly(A) signal was amplified from pNL3.2-NFκB-Nluc (Promega) using NFκB-NLUC-F and NFκB-NLUC-R primers and inserted by Infusion (TaKaRa) in AAVS1 SA-2A-puro-pA donor plasmid (Hockemeyer et al, Nat Biotechnol. 2009, 27, 851-7) digested by Sall. pCRISPR AAVS1-T2 expressing a guide RNA (gRNA) to target human AAVS1 (T2 target sequence) was constructed by inserting AAVS1-T2A hybridized primers in pLentiCRISPR v2-blast (Sanjana et al, Nat Methods. 2014, 11, 783-4) digested by Bsmb1.
A549 cells were transfected by the plasmids and puromycine selected for 5 days (1 μg mL-1). Then clones were obtained by limiting dilution and selected to maximize TNFα dependent NFkB-NanoLuciferase induction.
The reporter cells were seeded on a 96-well plate for overnight with DMEM including 10% FBS. Test compounds were added at varying concentrations. The cells then were treated with 4 ng/ml TNFα (Peprotech, ref E251) in DMEM+10% FBS. NanoGlo luciferase assay (Promega) was carried out 6 hours later. Luminescence was measured using a Spark 20M spectrofluorimeter (Tecan). Values were normalized to the luminescence measured in untreated cells.

Compound | IC50 [1] [nM] | Residual cluster bound at end of experiment (Percentage Absorbance 458 nm at time zero) [2] | Stabiliser of Fe—S cluster binding (time to 50% loss increased by more than 25% vs control) [2] | Time (in minutes) to achieve 50% loss of bound cluster (Absorbance 458 nm) [2] | Residual cluster bound at end of experiment (Percentage Absorbance 458 nm at time zero) [3] | Stabiliser of Fe—S cluster binding (time to 50% loss increased by more than 25% vs control) [3] | Time (in minutes) to achieve 50% loss of bound cluster (Absorbance 458 nm) [3] | Residual cluster bound at end of experiment (Percentage Absorbance 458 nm at time zero) [4] | Stabiliser of Fe—S cluster binding (time to 50% loss increased by more than 25% vs control) [4] | Time (in minutes) to achieve 50% loss of bound cluster (Absorbance 458 nm) [4] | EC50 (NFκB) [nM]
O=C(Nc1scc(-c2ccc(Cl)cc2)c1C(=O)O)c1ccccc1 [Compound #1, 2-Benzamido-4-(4-chlorophenyl)thiophene-3-carboxylic acid] | 298 | 47% (11%) | Stabilisers | 85 (60) minutes | 29% (16%) | stabilisers | 100 (80) minutes | 13% (3%) | Stabilisers | 425 (310) minutes | –
O=C(Nc1scc(C2CC3CCC2C3)c1C(=O)O)c1ccccc1 (stereo not drawn) [Compound #9, 2-Benzamido-4-norbornan-2-yl-thiophene-3-carboxylic acid] | 210 | 57% (11%) | Stabilisers | during 180 minutes | 20% (16%) | stabilisers | 100 (80) minutes | 17% (3%) | – | 370 (310) minutes | 1100
O=C(Nc1scc(C2CCCCC2)c1C(=O)O)c1ccccc1 [Compound #26, 2-Benzamido-4-cyclohexyl-thiophene-3-carboxylic acid] | 745 | 52% (11%) | Stabilisers | during 180 minutes | 36% (16%) | stabilisers | 105 (80) minutes | 18% (3%) | – | 355 (310) minutes | –
Cc1c(-c2ccccc2)sc(NC(=O)c2ccccc2)c1C(=O)O [Compound #40, 2-Benzamido-4-methyl-5-phenyl-thiophene-3-carboxylic acid] | 2470 | 24% (11%) | – | 70 (60) minutes | 6% (16%) | – | 95 (80) minutes | 9% (3%) | Stabilisers | 390 (310) minutes | –
Cc1ccccc1C(=O)Nc1scc(-c2ccccc2)c1C(=O)O [Compound #42, 2-[(2-Methylbenzoyl)amino]-4-phenyl-thiophene-3-carboxylic acid] | 5870 | 37% (11%) | Stabilisers | 75 (60) minutes | 24% (16%) | stabilisers | 100 (80) minutes | 2% (3%) | – | 330 (310) minutes | –
CC1(c2csc(NC(=O)c3ccc(NCC4CCOCC4)cc3)c2C(=O)O)CC1 [Compound #111, 4-(1-Methylcyclopropyl)-2-[[4-(tetrahydropyran-4-ylmethylamino)benzoyl]amino]thiophene-3-carboxylic acid] | 200 | – | – | – | – | – | – | – | – | – | 2200
